Results as given in PMC6943417, “Housefly Pupae-Derived Antioxidant Peptides Exerting Neuroprotective Effects on Hydrogen Peroxide-Induced Oxidative Damage in PC12 Cells” (Molecules, 2019).
Where no end group is shown, it is not given here.

Test system: pepsin and pancreatin
Type: in vitro ADME
Description: The ABTS cation radical scavenging activity assay was conducted according to the manufacture instruction. […] The ABTS cation radical scavenging activity was calculated by the following formula: ABTS cation radical scavenging activity (%) = (1 − A1/A0) × 100%(2) where A1 and A0 were the absorbances of sample group and control group, respectively. The sample solution of control group was replaced with deionized water. Ascorbic acid was used as a positive control.
Thermal stability of synthetic peptides was determined according to the method of Yarnpakdee et al. with minor modifications. The synthetic peptides were respectively incubated at 25, 60, 70, 80, 90 °C for 30 min and then measured their scavenging ability of ABTS cation radical. The ability of synthetic peptides against pH treatments was measured according to Zhu et al.. In brief, pH of peptide solution was adjusted to 1, 3, 5, 7, 9, 11, incubated at room temperature for 1 h, and then ABTS cation radical scavenging activity of the treated peptides was measured. A two-stage digestion of protease in vitro (pepsin-digestion for 1 h and then pancreatin-digestion for 2 h at 37 °C) was performed as described by Zhang et al.. The ABTS cation radical scavenging ability was evaluated to assess the peptides stability against GI digestion.

With “ARFEELCSDLFR [AR12, Ala-Arg-Phe-Glu-Glu-Leu-Cys-Ser-Asp-Leu-Phe-Arg]” the “change in ABTS radical scavenging ability after simulated GI digestion” value was “no significant change”.

With “DFTPVCTTELGR [DR12, Asp-Phe-Thr-Pro-Val-Cys-Thr-Thr-Glu-Leu-Gly-Arg]” the “change in ABTS radical scavenging ability after simulated GI digestion” value was “slight decrease”.
